Source: patent publication US11339161B2, “Triazolo pyridines as modulators of gamma-secretase” (Boehringer Ingelheim International GmbH, priority 2017, dated 2022)
Where two headings read alike, the source gives them in different places.

Columns and labels:
PDGFRA (PDGFR alpha) = PDGFRA (PDGFR alpha) (Homo sapiens, UniProt P16234); experiment: Z'-LYTE SelectScreen biochemical kinase assay PDGFRA (PDGFR alpha)
Description: (§1) Thermo Fisher Scientific SelectScreen™ Biochemical Kinase Profiling Service Z′-LYTE™ Screening Protocol and Assay Conditions Assay Theory
(§2) The […] biochemical assay employs a fluorescence-based, coupled-enzyme format and is based on the differential sensitivity of phosphorylated and non-phosphorylated peptides to proteolytic cleavage. The peptide substrate is labeled with two fluorophores—one at each end—that make up a FRET pair. In the primary reaction, the kinase transfers the gamma-phosphate of ATP to a single tyrosine, serine or threonine residue in a synthetic FRET-peptide. In the secondary reaction, a site-specific protease recognizes and cleaves non-phosphorylated FRET-peptides. Phosphorylation of FRET-peptides suppresses cleavage by the Development Reagent. Cleavage disrupts FRET between the donor (i.e., coumarin) and acceptor (i.e., fluorescein) fluorophores on the FRET-peptide, whereas uncleaved, phosphorylated FRET-peptides maintain FRET. A ratiometric method, which calculates the ratio (Emission Ratio=Coumarin emission (445 nm)/Fluorescein emission (520 nm)) of donor emission to acceptor emission after excitation of the donor fluorophore at 400 nm, is used to quantitate reaction progress, as shown in the equation below. A significant benefit of this ratiometric method for quantitating reaction progress is the elimination of well-to-well variations in FRET-peptide concentration and signal intensities. As a result, the assay yields very high Z′-factor values (>0.7) at a low percent phosphorylation. Both cleaved and uncleaved FRET-peptides contribute to the fluorescence signals and therefore to the Emission Ratio. The extent of phosphorylation of the FRET-peptide can be calculated from the Emission Ratio. The Emission Ratio will remain low if the FRET-peptide is phosphorylated (i.e., no kinase inhibition) and will be high if the FRET-peptide is non-phosphorylated (i.e., kinase inhibition).
(§3) The Test Compounds are screened in 1% DMSO (final) in the well. For 10 point titrations, 3-fold serial dilutions are conducted from the starting concentration of the customer's choosing.
(§4) All Peptide/Kinase Mixtures are diluted to a 2× working concentration in the appropriate Kinase Buffer (see section Kinase Specific Assay Conditions for a complete description).
(§5) All ATP Solutions are diluted to a 4× working concentration in Kinase Buffer (50 mM HEPES pH 7.5, 0.01% BRIJ-35, 10 mM MgCl2, 1 mM EGTA). ATP Km apparent is previously determined using a Z″-LYTE assay.
(§6) The Development Reagent is diluted in Development Buffer (see section Kinase-Specific Assay Conditions—Direct and Cascade for a complete description).
(§7) Bar-coded Corning, low volume NBS, black 384-well plate (Corning Cat. #4514) • 1. 100 nL—100× Test Compound in 100% DMSO • 2. 2.4 μL—Kinase buffer • 3. 5 μL—2× Peptide/Kinase Mixture • 4. 2.5 μL—4×ATP Solution • 5. 30—second plate shake • 6. 60—minute Kinase Reaction incubation at room temperature • 7. 5 μL—Development Reagent Solution • 8. 30—second plate shake • 9. 60—minute Development Reaction incubation at room temperature • 10. Read on fluorescence plate reader and analyze the data Z′-LYTE Assay Controls
(§8) SelectScreen Kinase Profiling Service uses XLfit from IDBS. The dose response curve is curve fit to model number 205 (sigmoidal dose-response model).
The 2×PDGFRA (PDGFR alpha)/Tyr 04 mixture is prepared in 50 mM HEPES pH 7.5, 0.01% BRIJ-35, 10 mM MgCl2, 4 mM MnCl2, 1 mM EGTA, 2 mM DTT. The final 10 μL Kinase Reaction consists of 1.54-22.6 ng PDGFRA (PDGFR alpha) and 2 μM Tyr 04 in 50 mM HEPES pH 7.5, 0.01% BRIJ-35, 10 mM MgCl2, 2 mM MnCl2, 1 mM EGTA, 1 mM DTT. After the 1 hour Kinase Reaction incubation, 5 μL of a 1:64 dilution of Development Reagent B is added.

CDK5/p35 = CDK5/p35 (Homo sapiens, UniProt Q00535); experiment: Z'-LYTE SelectScreen biochemical kinase assay CDK5/p35
CDK5/p35, sequence (Q00535 whole entry): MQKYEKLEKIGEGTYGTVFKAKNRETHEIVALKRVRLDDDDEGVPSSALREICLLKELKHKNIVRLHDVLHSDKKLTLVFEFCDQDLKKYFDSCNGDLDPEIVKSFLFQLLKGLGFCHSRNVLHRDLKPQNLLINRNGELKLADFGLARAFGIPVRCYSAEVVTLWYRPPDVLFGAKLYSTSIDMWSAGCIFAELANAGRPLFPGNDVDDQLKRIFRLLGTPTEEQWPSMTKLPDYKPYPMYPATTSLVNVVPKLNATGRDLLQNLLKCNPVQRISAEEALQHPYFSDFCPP
CDK5/p35, sequence (Q15078 whole entry partner): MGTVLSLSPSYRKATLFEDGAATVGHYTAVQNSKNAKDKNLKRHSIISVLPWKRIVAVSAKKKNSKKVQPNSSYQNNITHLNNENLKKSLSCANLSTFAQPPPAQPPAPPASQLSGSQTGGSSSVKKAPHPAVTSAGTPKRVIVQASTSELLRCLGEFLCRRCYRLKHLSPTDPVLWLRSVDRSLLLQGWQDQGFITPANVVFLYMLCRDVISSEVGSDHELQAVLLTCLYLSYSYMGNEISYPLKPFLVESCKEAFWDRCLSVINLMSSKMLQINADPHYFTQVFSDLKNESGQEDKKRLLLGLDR
Description: as §1, §2, §3, §4, §5, §6, §7, §8
(§9) The 2×CDK5/p35/Ser/Thr 12 mixture is prepared in 50 mM HEPES pH 7.5, 0.01% BRIJ-35, 10 mM MgCl2, 1 mM EGTA. The final 10 μL Kinase Reaction consists of 0.14-1.3 ng CDK5/p35 and 2 μM Ser/Thr 12 in 50 mM HEPES pH 7.5, 0.01% BRIJ-35, 10 mM MgCl2, 1 mM EGTA. After the 1 hour Kinase Reaction incubation, 5 μL of a 1:4096 dilution of Development Reagent A is added.

RET = RET (Homo sapiens, UniProt P07949); experiment: Z'-LYTE SelectScreen biochemical kinase assay RET
RET, sequence (P07949 29-1114): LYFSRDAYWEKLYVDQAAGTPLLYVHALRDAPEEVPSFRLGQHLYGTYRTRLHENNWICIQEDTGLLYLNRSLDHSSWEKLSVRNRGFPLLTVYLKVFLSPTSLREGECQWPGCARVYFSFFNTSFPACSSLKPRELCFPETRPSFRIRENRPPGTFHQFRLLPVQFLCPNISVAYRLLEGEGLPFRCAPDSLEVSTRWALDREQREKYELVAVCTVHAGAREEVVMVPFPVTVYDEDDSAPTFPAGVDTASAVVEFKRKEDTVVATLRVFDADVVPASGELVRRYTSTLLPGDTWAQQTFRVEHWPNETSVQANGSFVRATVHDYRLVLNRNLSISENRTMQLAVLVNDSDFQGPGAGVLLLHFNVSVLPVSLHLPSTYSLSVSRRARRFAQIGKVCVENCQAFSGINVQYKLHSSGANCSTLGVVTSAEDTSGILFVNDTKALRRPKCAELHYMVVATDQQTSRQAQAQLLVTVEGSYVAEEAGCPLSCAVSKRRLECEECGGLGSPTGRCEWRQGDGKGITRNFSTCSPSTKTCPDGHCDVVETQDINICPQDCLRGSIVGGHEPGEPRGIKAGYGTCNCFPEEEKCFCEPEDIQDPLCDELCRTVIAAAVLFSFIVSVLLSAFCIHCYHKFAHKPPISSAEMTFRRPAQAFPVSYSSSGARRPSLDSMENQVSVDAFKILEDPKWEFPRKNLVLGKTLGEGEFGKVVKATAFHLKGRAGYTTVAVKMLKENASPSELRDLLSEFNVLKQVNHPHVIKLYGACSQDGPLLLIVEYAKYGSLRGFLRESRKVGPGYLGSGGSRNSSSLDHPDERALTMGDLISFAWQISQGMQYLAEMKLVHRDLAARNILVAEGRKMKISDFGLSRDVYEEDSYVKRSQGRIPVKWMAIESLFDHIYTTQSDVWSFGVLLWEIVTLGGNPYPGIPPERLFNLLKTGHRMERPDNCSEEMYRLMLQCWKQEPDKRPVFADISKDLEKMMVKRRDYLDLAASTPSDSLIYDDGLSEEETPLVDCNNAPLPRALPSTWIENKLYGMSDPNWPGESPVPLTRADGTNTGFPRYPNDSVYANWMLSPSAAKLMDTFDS
Description: as §1, §2, §3, §4, §5, §6, §7, §8
as §9, with “2×RET/Tyr 02” for “2×CDK5/p35/Ser/Thr 12”, “0.49-3.64” for “0.14-1.3”, “RET” for “CDK5/p35”, “Tyr 02” for “Ser/Thr 12”, “1:128” for “1:4096”

KDR (VEGFR2) = KDR (VEGFR2) (Homo sapiens, UniProt P35968); experiment: Z'-LYTE SelectScreen biochemical kinase assay KDR (VEGFR2)
KDR (VEGFR2), sequence (P35968 20-1356): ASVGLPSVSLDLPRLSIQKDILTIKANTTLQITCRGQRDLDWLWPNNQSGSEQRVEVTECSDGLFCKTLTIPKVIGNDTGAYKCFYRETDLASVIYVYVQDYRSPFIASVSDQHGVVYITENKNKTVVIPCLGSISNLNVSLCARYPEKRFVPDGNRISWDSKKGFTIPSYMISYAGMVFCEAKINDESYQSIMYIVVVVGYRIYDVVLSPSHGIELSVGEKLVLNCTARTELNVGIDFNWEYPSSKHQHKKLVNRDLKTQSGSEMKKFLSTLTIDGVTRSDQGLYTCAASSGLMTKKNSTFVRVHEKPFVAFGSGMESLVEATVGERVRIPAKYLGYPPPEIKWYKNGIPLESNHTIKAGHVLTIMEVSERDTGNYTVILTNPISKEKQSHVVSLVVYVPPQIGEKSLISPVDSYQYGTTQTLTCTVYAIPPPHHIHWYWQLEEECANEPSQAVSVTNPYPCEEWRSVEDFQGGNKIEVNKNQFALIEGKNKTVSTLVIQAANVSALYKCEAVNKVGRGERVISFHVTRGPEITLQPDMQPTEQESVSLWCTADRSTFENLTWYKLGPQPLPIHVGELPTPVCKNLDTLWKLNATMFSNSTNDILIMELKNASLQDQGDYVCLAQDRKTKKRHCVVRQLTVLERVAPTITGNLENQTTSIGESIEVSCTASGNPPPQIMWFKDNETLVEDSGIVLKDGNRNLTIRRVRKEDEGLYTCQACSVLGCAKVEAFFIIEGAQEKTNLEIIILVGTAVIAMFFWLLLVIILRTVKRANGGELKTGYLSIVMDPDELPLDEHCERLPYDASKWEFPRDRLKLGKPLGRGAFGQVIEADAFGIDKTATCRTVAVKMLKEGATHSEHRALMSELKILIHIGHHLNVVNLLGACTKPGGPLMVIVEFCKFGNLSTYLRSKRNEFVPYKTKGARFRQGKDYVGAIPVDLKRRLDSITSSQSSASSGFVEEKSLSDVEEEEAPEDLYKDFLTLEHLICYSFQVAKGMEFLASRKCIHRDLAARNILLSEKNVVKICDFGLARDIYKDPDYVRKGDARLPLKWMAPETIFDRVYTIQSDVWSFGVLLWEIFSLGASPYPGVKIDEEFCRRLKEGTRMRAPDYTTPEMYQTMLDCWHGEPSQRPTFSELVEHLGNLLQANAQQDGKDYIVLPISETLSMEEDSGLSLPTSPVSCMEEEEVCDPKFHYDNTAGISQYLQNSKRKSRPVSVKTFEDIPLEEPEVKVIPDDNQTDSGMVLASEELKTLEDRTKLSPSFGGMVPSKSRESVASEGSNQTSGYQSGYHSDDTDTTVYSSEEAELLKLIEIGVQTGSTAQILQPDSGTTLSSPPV
Description: as §1, §2, §3, §4, §5, §6, §7, §8
The 2×KDR (VEGFR2)/Tyr 01 mixture is prepared in 50 mM HEPES pH 7.5, 0.01% BRIJ-35, 10 mM MgCl2, 1 mM EGTA. The final 10 μL Kinase Reaction consists of 1-30 ng KDR (VEGFR2) and 2 μM Tyr 01 in 50 mM HEPES pH 7.5, 0.01% BRIJ-35, 10 mM MgCl2, 1 mM EGTA. After the 1 hour Kinase Reaction incubation, 5 μL of a 1:256 dilution of Development Reagent B is added.

[1] = 10 μmolar compound concentration, ATP at Km app, read-out: PDGFRA (PDGFR alpha) inhibition
[2] = read-out: % Inhibition mean PDGFRA (PDGFR alpha)
[3] = 10 μmolar compound concentration, ATP at Km app, read-out: CDK5/p35 inhibition
[4] = read-out: % Inhibition mean CDK5/p35
[5] = 10 μmolar compound concentration, ATP at Km app, read-out: RET inhibition
[6] = read-out: % Inhibition mean RET
[7] = 10 μmolar compound concentration, ATP at Km app, read-out: KDR (VEGFR2) inhibition
[8] = read-out: % Inhibition mean KDR (VEGFR2)

PDGFRA (PDGFR alpha), sequence (P16234 24-1089): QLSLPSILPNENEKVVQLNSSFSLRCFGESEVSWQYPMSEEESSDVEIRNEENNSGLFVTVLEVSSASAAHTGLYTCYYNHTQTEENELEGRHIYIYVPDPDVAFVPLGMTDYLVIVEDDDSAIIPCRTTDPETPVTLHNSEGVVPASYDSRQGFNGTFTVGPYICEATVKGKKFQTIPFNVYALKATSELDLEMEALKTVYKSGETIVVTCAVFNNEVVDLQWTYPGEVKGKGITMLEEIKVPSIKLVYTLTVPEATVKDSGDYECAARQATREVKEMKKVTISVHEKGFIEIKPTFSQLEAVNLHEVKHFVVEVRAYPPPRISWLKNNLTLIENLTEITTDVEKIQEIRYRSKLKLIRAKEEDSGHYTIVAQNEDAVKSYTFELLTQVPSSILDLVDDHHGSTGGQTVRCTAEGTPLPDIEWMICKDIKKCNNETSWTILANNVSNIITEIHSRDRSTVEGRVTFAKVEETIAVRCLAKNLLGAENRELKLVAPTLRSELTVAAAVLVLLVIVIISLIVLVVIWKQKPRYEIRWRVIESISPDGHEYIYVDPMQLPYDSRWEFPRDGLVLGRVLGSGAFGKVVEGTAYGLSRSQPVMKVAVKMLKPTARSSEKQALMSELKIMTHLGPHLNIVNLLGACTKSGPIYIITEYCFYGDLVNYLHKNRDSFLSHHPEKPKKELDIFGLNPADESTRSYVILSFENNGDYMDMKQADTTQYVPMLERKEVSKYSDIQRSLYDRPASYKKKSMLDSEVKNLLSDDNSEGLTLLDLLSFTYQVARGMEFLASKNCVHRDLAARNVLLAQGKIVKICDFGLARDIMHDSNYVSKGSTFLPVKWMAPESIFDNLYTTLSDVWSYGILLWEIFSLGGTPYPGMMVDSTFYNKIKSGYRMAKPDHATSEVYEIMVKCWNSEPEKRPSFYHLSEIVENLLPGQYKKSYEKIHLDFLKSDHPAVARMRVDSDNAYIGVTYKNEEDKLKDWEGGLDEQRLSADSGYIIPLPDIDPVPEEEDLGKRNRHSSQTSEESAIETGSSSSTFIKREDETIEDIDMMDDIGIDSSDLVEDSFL

Row | inhibition at 10 µM (PDGFRA (PDGFR alpha); [1]) [%] | inhibition at 10 µM (PDGFRA (PDGFR alpha); [2]) [%] | inhibition at 10 µM (CDK5/p35; [3]) [%] | inhibition at 10 µM (CDK5/p35; [4]) [%] | inhibition at 10 µM (RET; [5]) [%] | inhibition at 10 µM (RET; [6]) [%] | inhibition at 10 µM (KDR (VEGFR2); [7]) [%] | inhibition at 10 µM (KDR (VEGFR2); [8]) [%] | inhibition at 10 µM (PDGFRA (PDGFR alpha); read-out: % Inhibition mean) [%] | inhibition at 10 µM (CDK5/p35; read-out: % Inhibition mean) [%] | inhibition at 10 µM (RET; read-out: % Inhibition mean) [%] | inhibition at 10 µM (KDR (VEGFR2); read-out: % Inhibition mean) [%] | SMILES
1 | < 40 | 21 | 40 to 80 | 53 | < 40 | 30 | < 40 | 17 | – | – | – | – | CCn1ncc2c1CCC(Nc1nc3c(-c4ccc(OC)nc4)cccn3n1)C2 (stereo not shown) [Example 71, (1-Ethyl-4,5,6,7-tetrahydro-1H-indazol-5-yl)-[8-(6-methoxy-pyridin-3-yl)-[1,2,4]triazolo[1,5-a]pyridine-2-yl]-amine]
2 | < 40 | 10 | < 40 | 13 | < 40 | 23 | < 40 | 6 | – | – | – | – | CCCCCn1ncc2c1CCC(Nc1nc3c(-c4ccc(F)cc4C)cccn3n1)C2 (stereo not shown) [Example 47, [8-(4-fluoro-2-methyl-phenyl)-[1,2,4]triazolo[1,5-a]pyridine-2-yl]-(1-pentyl-4,5,6,7-tetrahydro-1H-indazol-5-yl)-amine]
3 | < 40 | 19 | < 40 | 38 | < 40 | 18 | < 40 | 2 | – | – | – | – | CCn1nc(Cl)c2c1CCC(Nc1nc3c(-c4ccc(F)cc4C)cccn3n1)C2 (stereo not shown) [Example 48, (3-Chloro-1-ethyl-4,5,6,7-tetrahydro-1H-indazol-5-yl)-[8-(4-fluoro-2-methyl-phenyl)-[1,2,4]triazolo[1,5-a]pyridine-2-yl]-amine]
4 | < 40 | 8 | 40 to 80 | 44 | < 40 | 18 | < 40 | -2 | – | – | – | – | Cc1cc(F)ccc1-c1cccn2nc(NC3CCc4c(cnn4C)C3)nc12 (stereo not shown) [Example 10, [8-(4-fluoro-2-methyl-phenyl)-[1,2,4]triazolo[1,5-a]pyridine-2-yl]-(1-methyl-4,5,6,7-tetrahydro-1H-indazol-5-yl)-amine]
5 | < 40 | 5 | < 40 | 28 | < 40 | 29 | < 40 | -8 | – | – | – | – | CCn1ncc2c1CCC(Nc1nc3c(-c4cccc(Cl)c4)cccn3n1)C2 (stereo not shown) [Example 59, [8-(3-Chloro-phenyl)-[1,2,4]triazolo[1,5-a]pyridine-2-yl]-(1-ethyl-4,5,6,7-tetrahydro-1H-indazol-5-yl)-amine]
6 | < 40 | 30 | < 40 | 8 | < 40 | 30 | < 40 | -10 | – | – | – | – | Cc1cc(F)ccc1-c1cccn2nc(NC3CCc4c(cnn4CC(C)C)C3)nc12 (stereo not shown) [Example 45, [8-(4-fluoro-2-methyl-phenyl)-[1,2,4]triazolo[1,5-a]pyridine-2-yl]-(1-isobutyl-4,5,6,7-tetrahydro-1H-indazol-5-yl)-amine]
7 | < 40 | 25 | < 40 | 34 | < 40 | 26 | < 40 | 3 | – | – | – | – | CCCCn1ncc2c1CCC(Nc1nc3c(-c4ccc(F)cc4C)cccn3n1)C2 (stereo not shown) [Example 46, [8-(4-fluoro-2-methyl-phenyl)-[1,2,4]triazolo[1,5-a]pyridine-2-yl]-(1-butyl-4,5,6,7-tetrahydro-1H-indazol-5-yl)-amine]
8 | < 40 | 16 | < 40 | 13 | < 40 | 21 | < 40 | 12 | – | – | – | – | CCn1ncc2c1CCC(Nc1nc3c(-c4ccc(F)cc4)cccn3n1)C2 (stereo not shown) [Example 55, (1-Ethyl-4,5,6,7-tetrahydro-1H-indazol-5-yl)-[8-(4-fluoro-phenyl)-[1,2,4]triazolo[1,5-a]pyridine-2-yl]-amine]
9 | < 40 | 17 | 40 to 80 | 58 | < 40 | 32 | < 40 | 12 | – | – | – | – | CCn1ncc2c1CCC(Nc1nc3c(-c4cncc(OC)c4)cccn3n1)C2 (stereo not shown) [Example 70, (1-Ethyl-4,5,6,7-tetrahydro-1H-indazol-5-yl)-[8-(5-methoxy-pyridin-3-yl)-[1,2,4]triazolo[1,5-a]pyridine-2-yl]-amine]
10 | > 80 | – | > 80 | – | > 80 | – | > 80 | – | 89 | 88 | 98 | 101 | CC1(C)NC(=O)c2ccc(Nc3nc4c(-c5cccc(F)c5)cccn4n3)cc21 [Cpd. 302 in WO09155551, reference compound]
11 | < 40 | 5 | 40 to 80 | 61 | < 40 | 18 | < 40 | -10 | – | – | – | – | Cc1cc(F)ccc1-c1cccn2nc(NC3CCc4cnn(C)c4C3)nc12 (stereo not shown) [Example 40, [8-(4-Fluoro-2-methyl-phenyl)-[1,2,4]triazolo[1,5-a]pyridine-2-yl]-(1-methyl-4,5,6,7-tetrahydro-1H-indazol-6-yl)-amine]
